# How the values were obtained:
# [1] = Sensory evaluation of sweetness potency relative to sugar; conditions: for Sweetness Potency: Table 1, based on an aqueous solution of 4% sucrose having a sweetness potency of 1 (one); for sweetness potency value: sensory evaluation, running text
# [2] = system: ICR male mice; conditions: oral administration of 2.0 g/kg once
# [3] = Stability (survival rate) in acidic aqueous solution by HPLC; conditions: pH 3, 80° C., 7 hours, comparative compound = α-L-aspartyl-D-α-aminobutyric acid (S)-α-ethylbenzylamide
# Protocol: With respect to stability in an acidic aqueous solution, the percentage (survival rate) of the compound still surviving in an acidic aqueous solution having a pH of 3 at 80° C. for 7 hours by HPLC was measured.
Structure (SMILES),Sweetness Potency [1],sweetness potency value [1],also measured
"CC[C@H](NC(=O)C(C)(CC)NC(=O)[C@@H](N)CC(=O)O)c1ccccc1 (mixture of isomers) [Example 10, α-L-aspartyl-DL-isovaline (S)-α-ethylbenzylamide]",100,100 times that of sugar,
CC[C@H](NC(=O)C(NC(=O)[C@@H](N)CC(=O)O)c1ccco1)c1ccccc1 (mixture of isomers),,,toxicity [2]: no problematic toxicity
"CC[C@H](NC(=O)C(NC(=O)[C@@H](N)CC(=O)O)c1ccco1)c1ccccc1 (mixture of isomers) [Example 4, α-L-aspartyl-DL-furylglycine (S)-α-ethylbenzylamide]",1200,1200 times that of sugar,sweetness potency value ([1]; listed as α-L-aspartyl-DL-furylglycine(S)-α-ethylbenzylamide): about 1200 times that of sugar
"COC[C@H](NC(=O)C(NC(=O)[C@@H](N)CC(=O)O)c1ccco1)c1ccccc1 (mixture of isomers) [Example 5, α-L-aspartyl-DL-furylglycine (R)-α-methoxymethylbenzylamide]",1200,1200 times that of sugar,
COC[C@H](NC(=O)C(NC(=O)[C@@H](N)CC(=O)O)c1ccco1)c1ccccc1 (mixture of isomers) [α-L-aspartyl-DL-furylglycine (R)-α-methoxymethylbenzylamide],,about 1200 times that of sugar,toxicity [2]: no problematic toxicity
CCC(NC(=O)C(CC(C)C)NC(=O)C(N)CC(=O)O)c1ccccc1 [D-Leu (S) Et Ph],100,,
CCC(NC(=O)C(NC(=O)C(N)CC(=O)O)C(C)OC)c1ccccc1 [D-Thr(Me) (S) Et Ph],150,,
CCC(NC(=O)C(NC(=O)C(N)CC(=O)O)C(C)CC)c1ccccc1 [D-allo-Ile (S) Et Ph],90,,
"CC[C@H](NC(=O)[C@H](NC(=O)[C@@H](N)CC(=O)O)[C@H](C)O)c1ccccc1 [Example 1, α-L-aspartyl-D-threonine (S)-α-ethylbenzylamide]",1300,1300 times that of sugar,toxicity [2]: no problematic toxicity; sweetness potency value ([1]; listed as α-L-aspartyl-D-threonine(S)-α-ethylbenzylamide): about 1300 times that of sugar
"COC[C@H](NC(=O)[C@H](NC(=O)[C@@H](N)CC(=O)O)[C@H](C)O)c1ccccc1 [Example 2, α-L-aspartyl-D-threonine (R)-α-methoxymethylbenzylamide]",500,500 times that of sugar,
"CC[C@H](NC(=O)[C@H](NC(=O)[C@@H](N)CC(=O)O)[C@H](C)CC)c1ccccc1 [Example 3, α-L-aspartyl-D-isoleucine (S)-α-ethylbenzylamide]",500,500 times that of sugar,
"CC[C@H](NC(=O)C1(NC(=O)[C@@H](N)CC(=O)O)CCCC1)c1ccccc1 [Example 6, α-L-aspartyl-α-aminocyclopentanecarboxylic acid (S)-α-ethylbenzylamide]",1000,1000 times that of sugar,stability (survival rate in an acidic aqueous solution) relative to comparative compound [3]: about 10 times that of the comparative
"CC[C@H](NC(=O)C1(NC(=O)[C@@H](N)CC(=O)O)CCCCC1)c1ccccc1 [Example 7, α-L-aspartyl-α-aminocyclohexanecarboxylic acid (S)-α-ethylbenzylamide]",1000,1000 times that of sugar,stability (survival rate in an acidic aqueous solution) relative to comparative compound [3]: about 9 times that of the comparative
"CC[C@H](NC(=O)C(CC)(CC)NC(=O)[C@@H](N)CC(=O)O)c1ccccc1 [Example 9, α-L-aspartyl-α,α-diethylglycine (S)-α-ethylbenzylamide]",200,1000 times that of sugar,
"COC[C@H](NC(=O)[C@H](NC(=O)[C@@H](N)CC(=O)O)C(C)C)c1ccccc1 [Example 11, α-L-aspartyl-D-valine (R)-α-methoxymethylbenzylamide]",1300,1300 times that of sugar,
"COC[C@H](NC(=O)[C@H](NC(=O)[C@@H](N)CC(=O)O)c1ccccc1)c1ccccc1 [Example 12, α-L-aspartyl-D-phenylglycine (R)-α-methoxymethylbenzylamide]",500,500 times that of sugar,
"COC[C@H](NC(=O)C1(NC(=O)[C@@H](N)CC(=O)O)CCCCC1)c1ccccc1 [Example 13, α-L-aspartyl-α-aminocyclohexanecarboxylic acid (R)-α-methoxymethylbenzylamide]",250,250 times that of sugar,
"COC[C@@H](NC(=O)[C@H](NC(=O)[C@@H](N)CC(=O)O)C(C)C)C(C)C [Example 14, α-L-aspartyl-D-valine (S)-α-methoxymethyl-β-methylpropylamide]",40,40 times that of sugar,
"CCOC[C@H](NC(=O)[C@H](NC(=O)[C@@H](N)CC(=O)O)C(C)C)c1ccccc1 [Example 15, α-L-aspartyl-D-valine (R)-α-ethoxymethylbenzylamide]",500,500 times that of sugar,
"CC[C@@H](NC(=O)[C@@H](N)CC(=O)O)C(=O)N[C@@H](COC)c1ccccc1 [Example 16, α-L-aspartyl-D-α-aminobutyric acid (R)-α-methoxymethylbenzylamide]",1200,1200 times that of sugar,
"CC[C@@H](C)[C@@H](NC(=O)[C@@H](N)CC(=O)O)C(=O)N[C@@H](COC)c1ccccc1 [Example 17, α-L-aspartyl-D-isoleucine (R)-α-methoxymethylbenzylamide]",500,500 times that of sugar,
"COC[C@H](NC(=O)[C@@H](C)NC(=O)[C@@H](N)CC(=O)O)c1ccccc1 [Example 18, α-L-aspartyl-D-alanine (R)-α-methoxymethylbenzylamide]",300,300 times that of sugar,
"COC[C@H](NC(=O)[C@H](NC(=O)[C@@H](N)CC(=O)O)C(C)C)C(C)C [Example 19, α-L-aspartyl-D-valine (R)-α-methoxymethyl-β-methylpropylamide]",30,30 times that of sugar,
"COC[C@@H](NC(=O)[C@H](NC(=O)[C@@H](N)CC(=O)O)C(C)C)c1ccccc1 [Example 20, α-L-aspartyl-D-valine (S)-α-methoxymethylbenzylamide]",< 20,not more than 20 times that of sugar,
COC[C@H](NC(=O)[C@H](NC(=O)[C@@H](N)CC(=O)O)C(C)C)c1ccccc1 [α-L-aspartyl-D-valine (R)-α-methoxymethylbenzylamide],,about 1300 times that of sugar,toxicity [2]: no problematic toxicity
CC[C@@H](NC(=O)[C@@H](N)CC(=O)O)C(=O)N[C@@H](COC)c1ccccc1 [α-L-aspartyl-D-α-aminobutyric acid (R)-α-methoxymethylbenzyl],,about 1200 times that of sugar,
CC[C@H](NC(=O)C1(NC(=O)[C@@H](N)CC(=O)O)CCCCC1)c1ccccc1 [α-L-aspartyl-α-aminocyclohexanecarboxylic acid (S)-α-ethylbe],,about 1000 times that of sugar,toxicity [2]: no problematic toxicity; stability (survival rate in an acidic aqueous solution) relative to comparative compound [3]: about 9 times that of the comparative compound
CC[C@H](NC(=O)C1(NC(=O)[C@@H](N)CC(=O)O)CCCC1)c1ccccc1 [α-L-aspartyl-α-aminocyclopentanecarboxylic acid (S)-α-ethylb],,about 1000 times that of sugar,stability (survival rate in an acidic aqueous solution) relative to comparative compound [3]: about 10 times that of the comparative compound
